The results in this text go back to patent US20080119462A1, “METHOD FOR TREATING VASCULAR HYPERPERMEABLE DISEASE” (Sucampo AG, priority 2003, published 2008).

Each structure is given as a SMILES string.

The IC50 is the midpoint of a concentration-inhibition curve.

One assay addresses T1, Rat plasma SSAO (Rattus norvegicus, UniProt O08590).
T1 construct: The enzyme suspension prepared from blood plasma was pre-incubated with Compound A; from tissue; host or cells: rat blood plasma
T1 sequence (O08590 27-763 limits assumed): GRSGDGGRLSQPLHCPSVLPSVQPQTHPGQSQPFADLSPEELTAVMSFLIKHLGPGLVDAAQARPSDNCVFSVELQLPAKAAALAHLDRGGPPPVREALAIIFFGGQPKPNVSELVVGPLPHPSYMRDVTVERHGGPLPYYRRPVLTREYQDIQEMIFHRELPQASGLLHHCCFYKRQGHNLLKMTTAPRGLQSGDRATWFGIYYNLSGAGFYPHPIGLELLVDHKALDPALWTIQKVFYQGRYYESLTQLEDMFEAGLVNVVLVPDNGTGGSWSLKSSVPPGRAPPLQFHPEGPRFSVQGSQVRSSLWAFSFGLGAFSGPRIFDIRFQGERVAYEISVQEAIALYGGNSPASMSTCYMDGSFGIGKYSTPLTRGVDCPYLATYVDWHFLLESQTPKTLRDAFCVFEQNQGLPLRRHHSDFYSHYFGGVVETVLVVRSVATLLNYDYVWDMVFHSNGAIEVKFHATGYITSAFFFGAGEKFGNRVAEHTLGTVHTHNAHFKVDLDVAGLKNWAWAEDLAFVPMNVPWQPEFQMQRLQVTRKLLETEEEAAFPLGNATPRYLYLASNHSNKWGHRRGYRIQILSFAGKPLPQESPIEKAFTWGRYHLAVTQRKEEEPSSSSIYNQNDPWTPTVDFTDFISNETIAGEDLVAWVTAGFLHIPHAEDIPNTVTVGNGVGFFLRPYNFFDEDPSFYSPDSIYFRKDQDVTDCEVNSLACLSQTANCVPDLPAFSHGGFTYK
The assay can be described thus: Radiochemical-enzyme assay of VAP-1 enzyme (SSAO) activity with 14C-benzylamine, rat plasma. It is filed as biochemical. Here is the method:
VAP-1 enzyme (SSAO) activity in both human and rat plasma was determined by a radiochemical-enzyme assay using ^14C-benzylamine as artificial substrate. The enzyme suspension prepared from blood plasma was pre-incubated with Compound A in 96-well microplate at room temperature for 30 min. The enzyme suspension was then incubated with ^14C-benzylamine (2×10^−5 mol/l final concentration) in a final volume of 50 μl at 37° C. for 1 hour. The enzyme reaction was terminated by adding 2 mol/l (50 μl) citric acid. The oxidized products were directly extracted into a 200 μl toluene scintillator, and its radioactivity was measured by a scintillation spectrometer. Monoamine oxidase (MAO) and diamine oxidase (DAO, histaminase) activities were also determined by similar method using ^14C-phenylethylamine and ^14C-putrescine as substrate, respectively. Cloned DAO from cDNA libraries was used in human DAO assay. Inhibition activity was expressed as IC50 (μmol/l) value.

For another assay, the target named is T2, plasma SSAO (Rattus norvegicus, UniProt O08590).
T2 construct: The enzyme suspension prepared from blood plasma was pre-incubated with Compound A; from tissue; host or cells: rat blood plasma
T2 sequence (O08590 27-763 limits assumed): T1 sequence (O08590 27-763 limits assumed)
The assay can be described thus: Plasma SSAO activity in STZ diabetic rats after treatment. It is filed as in vivo. Here is the method:
Diabetes in rats was induced with an intraperitoneal (i.p.) injection of 65 mg/ml/kg of streptozotocin (STZ) in 2 mmol/l citrate buffer (pH 4.5) after a 20-h fast. At the same time control rats were injected with an equal volume of 2 mmol/l citrate buffer. Plasma glucose level was checked by a calorimetric method. At day 3 of STZ treatment, the rats were diagnosed with diabetes showing a plasma glucose level of 350 mg/dl.
The treatment of Compound A was given daily from 2 weeks after STZ treatment for 2 weeks. At 24 hrs after final treatment of Compound A, the vascular permeability in oculus was investigated based on the leakage of dye into the vitreous 30 min after intravenous injection of fluorescein solution (40 mg/ml/kg). Permeability was expressed as vitreous/plasma ratio of fluorescein concentration measured by a fluorophotometer. At the same time, the plasma SSAO activity was checked by the radiochemical-enzyme assay using ^14C-benzylamine (2×10^−5 mol/l final concentration) as substrate.

The next assay addresses T3, retinal VAP-1 (Rattus norvegicus, UniProt O08590).
T3 construct: from tissue; host or cells: retina of STZ diabetic rats
T3 sequence (O08590 1-763): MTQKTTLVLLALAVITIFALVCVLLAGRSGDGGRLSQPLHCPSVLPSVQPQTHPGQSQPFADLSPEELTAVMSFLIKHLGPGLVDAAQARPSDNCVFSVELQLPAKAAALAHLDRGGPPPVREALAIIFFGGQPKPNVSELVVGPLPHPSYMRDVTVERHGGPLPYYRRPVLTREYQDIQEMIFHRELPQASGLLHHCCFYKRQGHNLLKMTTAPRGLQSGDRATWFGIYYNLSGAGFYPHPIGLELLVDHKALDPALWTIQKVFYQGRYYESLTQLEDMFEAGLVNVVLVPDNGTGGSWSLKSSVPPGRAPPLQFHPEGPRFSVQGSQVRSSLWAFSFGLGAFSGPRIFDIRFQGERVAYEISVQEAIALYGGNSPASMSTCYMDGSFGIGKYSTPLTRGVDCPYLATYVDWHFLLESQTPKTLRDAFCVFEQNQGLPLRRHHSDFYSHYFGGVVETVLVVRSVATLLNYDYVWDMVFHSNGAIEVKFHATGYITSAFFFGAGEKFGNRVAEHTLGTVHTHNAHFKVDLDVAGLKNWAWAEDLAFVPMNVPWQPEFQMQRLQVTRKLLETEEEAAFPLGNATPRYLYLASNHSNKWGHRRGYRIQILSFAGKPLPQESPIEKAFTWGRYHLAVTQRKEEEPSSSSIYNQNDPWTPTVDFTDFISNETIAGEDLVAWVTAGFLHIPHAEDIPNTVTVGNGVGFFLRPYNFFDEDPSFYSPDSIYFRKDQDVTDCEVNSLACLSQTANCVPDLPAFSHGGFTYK
The assay can be described thus: Retinal VAP-1 activity in STZ diabetic rats after eye-drop instillation. The assay is classed as in vivo. The procedure: A 0.1% solution of Compound A was instilled into the eyes of STZ diabetic rats (10 μl/eye) prepared in the same manner as in Example 2. To the normal group and STZ control group, a vehicle was instilled. At 6 hours from the instillation, the retina was removed from the animals and the retinal VAP-1 activity was determined.

The test system of a further assay is retinal VEGF. The assay can be described thus: Retinal VEGF level in STZ diabetic rats (Murine VEGF ELISA kit). The assay is classed as in vivo, rat. To be noted: 0.1 mg/kg, sc, u.i.d. Here is the method:
STZ diabetic rats were prepared in the same manner as in Example 2. Compound A (0.1 mg/kg, sc, u.i.d.) was administered from 3 days to 8 weeks after the STZ administration. To the normal group and STZ control group, a vehicle was treated. At 8 weeks from the STZ administration, the retina was removed from the animals and the retinal VEGF level was determined using a Murine VEGF ELISA kit.
A general note: In an ELISA, binding on a coated surface is turned into a signal by an enzyme label.

With `CC(=O)Nc1nc(CCc2ccc(NC(=N)N)cc2)cs1` [Compound A, N-{4-[2-(4-{[amino(imino)methyl]amino}phenyl)ethyl]-1,3-thiazol-2-yl}acetamide], the “Inhibition of the enzyme activity of rat plasma SSAO (in words)” value on Rat plasma SSAO is given as “completely inhibited”. Also, at Rat plasma SSAO (30 min pre-incubation, 14C-benzylamine 2×10^−5 mol/l, 37° C., 1 hour, read-out: Inhibitory effect (IC50 values) Rat plasma SSAO), the half-maximal inhibitory concentration (IC50) is 12 nM. The “Effect on the increased plasma SSAO activity in diabetic rats (in words)” value on plasma SSAO (4 weeks after STZ treatment) is “dose-dependent inhibition”. For the same molecule, the “Plasma SSAO activity” value on plasma SSAO (STZ diabetic rats, 4 weeks after STZ, Compound A treatment daily from 2 weeks after STZ, mean ± S.E.M., 10 rats) was determined as 2.51 ± 0.26 pmol/min/mL. On retinal VAP-1 (0.1% solution instilled into the eyes, 6 hours), the “Effect on the increased retinal VAP-1 activity in STZ diabetic rats (in words)” value was “completely inhibited”. Besides, the “Retinal VAP-1 activity” value on retinal VAP-1 (STZ diabetic rats, 0.1%, ocular instillation (10 μl/eye), 6 hours after instillation, mean ± S.E.M., 4 rats) was determined as 4.86 ± 0.70 pmol/min/mg protein. Further, the “Effect on the increased retinal VEGF level in STZ diabetic rats (in words)” value in the assay on retinal VEGF (3 days to 8 weeks after STZ) is recorded as “completely inhibited”. Further, the “Retinal VEGF level” value with retinal VEGF (STZ diabetic rats, from 3 days to 8 weeks after STZ, mean ± S.E.M., 10 rats) came to 28.3 ± 2.72 pg/mg protein.
